Key:
[1] = target: T1, PAK4 (Homo sapiens, UniProt O96013); test: Additional in vitro PAK inhibition assay, PAK4; assay type: biochemical; conditions: 10 μM ATP
Procedure: (§1) Additional In Vitro PAK Inhibition Assay
(§2) Similar in vitro PAK1 and PAK4 inhibition assay was conducted in compounds for the treatment of Fragile X syndrome, but under ATP concentrations of 10 uM and 1 mM.

[2] = target: T2, PAK1 (Homo sapiens, UniProt Q13153); test: Additional in vitro PAK inhibition assay, PAK1; assay type: biochemical
T2 sequence (Q13153 whole entry): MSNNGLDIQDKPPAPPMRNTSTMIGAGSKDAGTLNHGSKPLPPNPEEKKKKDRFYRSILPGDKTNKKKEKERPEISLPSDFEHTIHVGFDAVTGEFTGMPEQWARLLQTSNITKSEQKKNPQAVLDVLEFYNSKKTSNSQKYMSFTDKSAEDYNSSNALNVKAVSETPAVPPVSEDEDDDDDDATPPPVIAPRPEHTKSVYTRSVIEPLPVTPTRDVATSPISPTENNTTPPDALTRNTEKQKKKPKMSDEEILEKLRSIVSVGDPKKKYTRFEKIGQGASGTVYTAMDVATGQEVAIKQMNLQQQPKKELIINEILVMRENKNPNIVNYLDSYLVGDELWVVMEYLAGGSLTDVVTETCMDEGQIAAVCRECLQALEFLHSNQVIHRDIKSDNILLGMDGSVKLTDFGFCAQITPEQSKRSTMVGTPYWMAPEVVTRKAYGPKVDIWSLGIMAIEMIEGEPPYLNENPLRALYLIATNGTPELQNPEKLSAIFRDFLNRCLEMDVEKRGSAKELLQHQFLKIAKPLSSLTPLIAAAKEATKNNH
Procedure: as §1, §2

[3] = tested on: p-MEK1(S298); test: In vitro cellular HTRF assay for p-MEK1(S298); assay type: cell-based; conditions: cell line RT4-D6P2T, read-out: pMEK1(S298)
Source text: (§3) In Vitro p-PAK1(S144) and p-MEK1(S298) Cellular Assay
(§4) The cell line is RT4-D6P2T.

[4] = tested on: p-PAK1(S144); test: In vitro cellular HTRF assay for p-PAK1(S144); assay type: cell-based; conditions: cell line RT4-D6P2T, read-out: pPAK1(S144)
Source text: as §3, §4

[5] = target: PAK2 (PAK65) (Homo sapiens, UniProt Q13177); test: In vitro PAK inhibition assay (Z'-LYTE), PAK2; assay type: biochemical
PAK2 (PAK65), sequence (Q13177 whole entry): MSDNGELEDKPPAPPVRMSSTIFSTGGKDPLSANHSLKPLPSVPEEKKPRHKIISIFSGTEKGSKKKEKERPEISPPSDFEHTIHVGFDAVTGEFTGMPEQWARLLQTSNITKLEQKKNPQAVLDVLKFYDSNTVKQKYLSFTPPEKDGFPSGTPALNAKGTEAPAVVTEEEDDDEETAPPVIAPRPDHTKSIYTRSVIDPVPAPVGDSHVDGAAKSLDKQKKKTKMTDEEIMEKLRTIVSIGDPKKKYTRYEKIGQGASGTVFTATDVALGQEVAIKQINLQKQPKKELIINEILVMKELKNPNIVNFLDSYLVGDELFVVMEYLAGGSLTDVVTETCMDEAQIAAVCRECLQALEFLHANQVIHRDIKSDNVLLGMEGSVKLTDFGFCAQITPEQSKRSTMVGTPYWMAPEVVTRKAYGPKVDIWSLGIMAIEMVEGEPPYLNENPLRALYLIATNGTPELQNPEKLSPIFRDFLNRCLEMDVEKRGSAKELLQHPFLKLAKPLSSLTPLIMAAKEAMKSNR
Procedure: (§5) In Vitro PAK Inhibition Assay
(§6) Compounds are screened in 1% DMSO (final) in the well. For 10 point titrations, 3-fold serial dilutions are conducted. All Peptide/Kinase Mixtures are diluted to a 2× working concentration in the appropriate Kinase Buffer
(§7) The 2× PAK2 (PAK65)/Ser/Thr 20 mixture is prepared in 50 mM HEPES pH 7.5, 0.01% BRIJ-35, 10 mM MgCl2, 1 mM EGTA. The final 10 μL Kinase Reaction consists of 0.29-6 ng PAK2 (PAK65) and 2 μM Ser/Thr 20 in 50 mM HEPES pH 7.5, 0.01% BRIJ-35, 10 mM MgCl2, 1 mM EGTA. After the 1 hour Kinase Reaction incubation, 5 μL of a 1:256 dilution of Development Reagent A is added.
(§8) Bar-coded Corning, low volume NBS, black 384-well plate (Corning Cat. #3676) • 1. Add the following solutions to a well in a 384-well plate: 2.5 μL of 4× Test Compound OR (100 nL 100× Test Compound plus 2.4 μL kinase buffer) • 5 μL of 2× Peptide/Kinase (PAK) Mixture • 2.5 μL of 4× ATP Solution • 2. Shake the plate for 30-seconds • 3. Incubate the PAK Kinase Reaction at room temperature for 60-minutes • 4. Add 5 μL of Development Reagent Solution to each well • 5. Shake the plate for 30-seconds • 6. Incubate the Development Reaction for 60-minutes • 7. Determine the fluorescence using a fluorescence plate reader • 8. Analyze the fluorescence data
(§9) SelectScreen® Kinase Profiling Service uses XLfit from IDBS. The dose response curve is curve fit to model number 205 (sigmoidal dose-response model).
(§10) The table below provides specifications and data around each kinase. The representative IC50 value with a known inhibitor for each kinase was determined at the ATP bin nearest to the ATP Km app.

[6] = target: T1, PAK4; test: In vitro PAK inhibition assay (Z'-LYTE), PAK4; assay type: biochemical
Procedure: as §5, §6
as §7, with “PAK4/Ser/Thr” for “PAK2 (PAK65)/Ser/Thr”, “0.1-0.75” for “0.29-6”, “PAK4” for “PAK2 (PAK65)”
as §8, §9, §10

[7] = target: T2, PAK1; test: In vitro PAK inhibition assay (Z'-LYTE), PAK1; assay type: biochemical
Procedure: as §5, §6
as §7, with “PAK1/Ser/Thr 19” for “PAK2 (PAK65)/Ser/Thr 20”, “2.71-30.8” for “0.29-6”, “PAK1” for “PAK2 (PAK65)”, “19” for “20”, “1:128” for “1:256”
as §8, §9, §10

[8] = target: PAK3 (Homo sapiens, UniProt O75914); test: In vitro PAK inhibition assay (Z'-LYTE), PAK3; assay type: biochemical
PAK3, sequence (O75914 whole entry): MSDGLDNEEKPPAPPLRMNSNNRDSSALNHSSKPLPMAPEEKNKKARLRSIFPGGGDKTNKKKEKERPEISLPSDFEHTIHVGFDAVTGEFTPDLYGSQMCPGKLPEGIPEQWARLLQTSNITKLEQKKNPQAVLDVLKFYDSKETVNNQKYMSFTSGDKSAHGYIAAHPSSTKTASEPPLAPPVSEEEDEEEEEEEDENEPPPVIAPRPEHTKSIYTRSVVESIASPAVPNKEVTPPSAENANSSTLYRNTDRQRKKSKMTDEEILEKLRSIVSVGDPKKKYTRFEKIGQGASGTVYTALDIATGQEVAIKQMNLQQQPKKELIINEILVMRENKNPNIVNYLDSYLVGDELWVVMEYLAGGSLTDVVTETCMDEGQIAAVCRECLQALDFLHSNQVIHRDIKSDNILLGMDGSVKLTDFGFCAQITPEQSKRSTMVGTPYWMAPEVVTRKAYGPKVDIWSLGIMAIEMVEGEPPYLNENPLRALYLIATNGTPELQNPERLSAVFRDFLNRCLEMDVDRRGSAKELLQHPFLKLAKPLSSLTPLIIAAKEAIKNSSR
Procedure: as §5, §6
as §7, with “PAK3/Ser/Thr” for “PAK2 (PAK65)/Ser/Thr”, “2.25-22” for “0.29-6”, “PAK3” for “PAK2 (PAK65)”
as §8, §9, §10

T1 sequence (O96013 whole entry): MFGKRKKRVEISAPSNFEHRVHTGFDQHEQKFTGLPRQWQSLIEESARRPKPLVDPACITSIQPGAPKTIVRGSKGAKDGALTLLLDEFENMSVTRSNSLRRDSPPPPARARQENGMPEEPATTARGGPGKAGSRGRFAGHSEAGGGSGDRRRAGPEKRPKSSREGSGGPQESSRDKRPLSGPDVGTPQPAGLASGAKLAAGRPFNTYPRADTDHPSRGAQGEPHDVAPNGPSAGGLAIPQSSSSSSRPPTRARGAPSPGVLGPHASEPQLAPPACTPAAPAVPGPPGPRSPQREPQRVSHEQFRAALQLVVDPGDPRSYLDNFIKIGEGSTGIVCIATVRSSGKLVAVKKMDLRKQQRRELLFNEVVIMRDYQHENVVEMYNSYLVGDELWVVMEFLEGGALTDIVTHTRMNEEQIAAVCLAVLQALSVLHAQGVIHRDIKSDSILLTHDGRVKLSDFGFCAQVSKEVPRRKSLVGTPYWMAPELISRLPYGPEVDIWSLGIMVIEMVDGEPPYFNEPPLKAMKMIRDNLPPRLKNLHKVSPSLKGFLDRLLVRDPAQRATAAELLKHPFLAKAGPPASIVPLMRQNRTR

| IC50 [1] [nM] | IC50 ([2]; 10 μM ATP, read-out: PAK1 IC50 (10 μM ATP)) [nM] | IC50 ([2]; 1 mM ATP, read-out: PAK1 IC50 (1 mM ATP)) [nM] | IC50 [3] [nM] | IC50 [4] [nM] | IC50 [5] [nM] | IC50 [6] [nM] | IC50 [7] [nM] | IC50 [8] [nM] | Structure (SMILES) |
| --- | --- | --- | --- | --- | --- | --- | --- | --- | --- |
| > 5000 | 50 to 500 | > 5000 |  |  |  |  |  |  | CCn1c(=O)c(-c2ccc(-c3noc(C)n3)cc2Cl)cc2cnc(N[C@@H]3COC[C@@H]3N3CCN(C)CC3)nc21 |
|  |  |  | 500 to 5000 | 500 to 5000 |  |  |  |  | CCn1c(=O)c(-c2ccc(-c3cncc(C)n3)cc2Cl)cc2cnc(N[C@H]3CC[C@H](CN(C)C)CC3)nc21 |
|  |  |  |  |  | 50 to 500 | > 5000 | 50 to 500 | 50 to 500 | CCn1c(=O)c(-c2ccc(-c3cncc(C)n3)cc2Cl)cc2cnc(NCCCO)nc21 [Example 1, 6-(2-chloro-4-(6-methylpyrazin-2-yl)phenyl)-8-ethyl-2-((3-hydroxypropyl)amino)pyrido[2,3-d]pyrimidin-7(8H)-one] |
|  |  |  |  |  | 50 to 500 | > 5000 | 50 to 500 | 50 to 500 | Cc1cncc(-c2ccc(-c3cc4cnc(NC(CCO)CCO)nc4n(Cc4ccccc4C(F)(F)F)c3=O)c(Cl)c2)n1 [Example 2] |
|  |  |  |  |  | 50 to 500 | > 5000 | 50 to 500 | 50 to 500 | CCn1c(=O)c(-c2ccc(-c3nccnc3C)cc2Cl)cc2cnc(NCCCO)nc21 [Example 3] |
|  |  |  |  |  | 50 to 500 | > 5000 | 500 to 5000 | 500 to 5000 | CCn1c(=O)c(-c2ccc(-c3cncc(C)n3)cc2Cl)cc2cnc(NC(CCO)CCO)nc21 [Example 4] |
|  |  |  |  |  | 500 to 5000 | > 5000 | 500 to 5000 | 500 to 5000 | CCn1c(=O)c(-c2ccc(-c3nccnc3C)cc2Cl)cc2cnc(NC(CCO)CCO)nc21 [Example 5] |
|  |  |  |  |  | 50 to 500 | > 5000 | 50 to 500 | 50 to 500 | CCn1c(=O)c(-c2ccc(-c3nccnc3C)cc2Cl)cc2cnc(NCCO)nc21 [Example 6] |
|  |  |  |  |  | 50 to 500 | > 5000 | 50 to 500 | 50 to 500 | CCn1c(=O)c(-c2ccc(-c3cncc(C)n3)cc2Cl)cc2cnc(NCCO)nc21 [Example 7] |
|  |  |  |  |  | 50 to 500 | > 5000 | 50 to 500 | 500 to 5000 | CCn1c(=O)c(-c2ccc(-c3nccnc3C)cc2Cl)cc2cnc(NCCOC)nc21 [Example 8] |
|  |  |  |  |  | 50 to 500 | > 5000 | 50 to 500 | 500 to 5000 | CCn1c(=O)c(-c2ccc(-c3nccnc3C)cc2Cl)cc2cnc(NCCCOC)nc21 [Example 9] |
|  |  |  |  |  | 50 to 500 | > 5000 | 50 to 500 | 50 to 500 | CCn1c(=O)c(-c2ccc(-c3cncc(C)n3)cc2Cl)cc2cnc(NCCCOC)nc21 [Example 10] |
|  |  |  |  |  | 50 to 500 | > 5000 | 50 to 500 | 500 to 5000 | CCn1c(=O)c(-c2ccc(-c3cncc(C)n3)cc2Cl)cc2cnc(NCCOC)nc21 [Example 11] |

Reference: US20150031693A1, “PAK INHIBITORS FOR THE TREATMENT OF FRAGILE X SYNDROME” (AFRAXIS HOLDINGS, INC., priority 2011, published 2015)
